Patent publication US4772589A, “Etoposide solution in NMP” (Bristol-Myers, priority 1986, dated 1988)
Converted amounts (≈) assume the structure as drawn.

How the values were obtained:
[1] = water, ethanol, ether, chloroform, benzene, ethyl acetate, and carbon disulfide; cited from earlier work
[2] = oral gelatin capsule vs IV; cited from earlier work
[3] = Crystallization on dilution with water or parenteral vehicle
[4] = Etoposide solubility in various solvents; format: physicochemical
From the text: The high etoposide concentration achievable renders the solution useful as gelatin capsule fill. Table III compares the solubility of etoposide in various solvents.

SMILES	Miscibility [1]	Gelatin capsule dose relative to IV dose for equivalent blood level [2]	Crystallization on dilution with water ([3]; solution in 1-ethyl-2-pyrrolidinone, diluted with water to 0.5-5 mg/ml)	Crystallization on dilution with water ([3]; solution in 2-pyrrolidinone, diluted with water to 0.5-5 mg/ml)	Crystallization on dilution with water ([3]; solution in dimethylacetamide, diluted with water to 0.5-5 mg/ml)	Crystallization on dilution with water ([3]; solution in dimethylformamide, diluted with water to 0.5-5 mg/ml)	Crystallization on dilution with water ([3]; solution in dimethylisosorbide, diluted with water to 0.5-5 mg/ml)	Crystallization on dilution with water ([3]; solution in ethanol, diluted with water to 0.5-5 mg/ml)	Crystallization on dilution with water ([3]; solution in polyethylene glycol-300, diluted with water to 0.5-5 mg/ml)	Crystallization on dilution with water ([3]; solution in propylene glycol, diluted with water to 0.5-5 mg/ml)	solubility ([4]; 1-methyl-2-pyrrolidinone, organic solvent or mixture, solvent: 1-Methyl-2-pyrrolidinone)	solubility ([4]; benzyl alcohol, organic solvent or mixture, solvent: Benzyl Alcohol)	solubility ([4]; dimethylisosorbide, organic solvent or mixture, solvent: Dimethylisosorbide)	solubility ([4]; ethanol, organic solvent or mixture, solvent: Ethanol)	solubility ([4]; propylene glycol, organic solvent or mixture, solvent: Propylene Glycol)	solubility ([4]; water, solvent: Water)
CN1CCCC1=O [1-Methyl-2-pyrrolidinone, 1-methyl-2-pyrrolidinone]	miscible															
COc1cc([C@@H]2c3cc4c(cc3[C@@H](O[C@@H]3O[C@@H]5CO[C@@H](C)O[C@H]5[C@H](O)[C@H]3O)[C@H]3COC(=O)[C@H]23)OCO4)cc(OC)c1O [etoposide, 4'-demethylepipodophyllotoxin-9-(4,6-O(R)-ethylidine-β-D-glucopyranoside)]		twice as high	rapid deposit of etoposide crystals	rapid deposit of etoposide crystals	rapid deposit of etoposide crystals	rapid deposit of etoposide crystals	rapid deposit of etoposide crystals	rapid deposit of etoposide crystals	rapid deposit of etoposide crystals	rapid deposit of etoposide crystals	> 500 mg/mL	104 mg/mL (≈ 177 mM)	320 mg/mL (≈ 544 mM)	< 1 mg/mL	11 mg/mL (≈ 18.7 mM)	0.1 mg/mL (≈ 0.17 mM)
